Tests used:
[1] = system: Pseudomonas aeruginosa ATCC #10145; assay: Efficacy (log kill) against Pseudomonas aeruginosa, 96-well assay block; assay type: cell-based
Description: (§1) The cationic polymers are pH adjusted in the range of 6-7.5. It should be noted that the Ecopol polymers require an acidic environment for complete dissolution. Once the polymer is dissolved, NaOH can be used to bring the pH to the desired range.
(§2) The efficacy of the antimicrobial combinations against Staphylococcus aureus ATCC #6538 and Pseudomonas aeruginosa ATCC #10145 is measured. Testing is done in 96-well 1.5 ml polypropylene assay blocks using 96-well polypropylene sealing mats for covering the samples during incubation. The individual wells in the 96-well assay block are identified as follows: 12 columns numbered 1-12 across the top row of wells on the block, and 8 rows lettered A-H on the first column of the block. Columns 1 and 2 are reserved to test the activity of the biocide in buffer (pH 7.2) in the absence of the cationic polymer. Columns 11 and 12 are always reserved as control, to verify growth of the microorganism in the absence of the biocide. The preparation of the assay blocks involves the following steps in chronological order:
(§3) 1. Preparation of the biocide solution in an appropriate solvent at a concentration equal to 10 times the final concentration desired in row A; 2. Addition of predetermined amount of the stock biocide solution to each well in row A; 3. Addition of a predetermined amount of the solvent to rows B-H and wells 11A and 12A; 4. Serial dilution of the biocide, by transferring a predetermined amount of the solution from row A to row B, mixing, and repeating the transfer down all the rows. After the mixing step in row H, the transferring amount is taken out and disposed of; 5. Inoculation of the buffer and polymer solutions with the test organism. For bacteria, a 24-hour culture is used. Following the incubation period, the organism concentration in the medium is determined by reading the OD at 620 nm. This culture is used to inoculate the buffer and the polymer solution to a bacterial concentration of 1E6 cfu/ml. Fungal challenges are performed with fungal spores isolated from inoculated SDA slants. The spores are collected by swiping the slant with a sterile cotton swab and re-suspended in tryptic soy broth. Tween 80 is added to aid in spore separation and the suspension was homogenized. The spore concentration is obtained by use of a hemacytometer. This suspension is used to inoculate the buffer and the polymeric solutions to a spore concentration of 3-5E6 cfu/ml; 6. Addition of the inoculated buffer or polymer solution to each well. 7. Thorough mixing of the blends in each well; 8. Sampling for the time 0, 24 h, 48 h and 7 days reading is accomplished using a 96-well 300 μl polystyrene microplate. Tryptic Soy broth (TSB) is used for the bacterial studies and Malt (YM) broth buffered at pH 7.4 for fungal studies; 9. The microplates are incubated at 35° C. for bacteria and 30° C. for fungus, until the control samples show adequate growth; and 10. Data is recorded as the log reduction in microorganism concentration relative to the inoculum.

[2] = system: Staphylococcus aureus ATCC #6538; assay: Efficacy (log kill) against Staphylococcus aureus, 96-well assay block; assay type: cell-based
Description: as §1, §2, §3

zinc pyrithione [ZPT]
0.5 log: Log kill 24 h ([2]; Active Conc. 100 ppm)
1.5 log: Log kill 48 h ([1]; Active Conc. 533.3 ppm) | Log kill 48 h ([2]; Active Conc. 100 ppm)
no control: control of P. aeruginosa before 48 h ([1]; 800 ppm active, before 48 h)
3 log: Log kill 7 days ([1]; Active Conc. 533.3 ppm)
2 log: Log kill 7 days ([1]; Active Conc. 46.8 ppm) | Log kill 48 h ([1]; Active Conc. 800 ppm) | Log kill 7 days ([2]; Active Conc. 100 ppm)
0 log: Log kill 24 h ([1]; Active Conc. 46.8 ppm) | Log kill 48 h ([1]; Active Conc. 46.8 ppm) | Log kill t0 ([1]; Active Conc. 46.8 ppm) | Log kill 24 h ([1]; Active Conc. 533.3 ppm) | Log kill t0 ([1]; Active Conc. 533.3 ppm) | Log kill 24 h ([1]; Active Conc. 800 ppm) | Log kill t0 ([1]; Active Conc. 800 ppm) | Log kill 24 h ([2]; Active Conc. 5.9 ppm) | Log kill t0 ([2]; Active Conc. 5.9 ppm) | Log kill 24 h ([2]; Active Conc. 29.6 ppm) | Log kill t0 ([2]; Active Conc. 29.6 ppm)
1 log: Log kill 48 h ([2]; Active Conc. 5.9 ppm) | Log kill 7 days ([2]; Active Conc. 5.9 ppm) | Log kill 48 h ([2]; Active Conc. 29.6 ppm) | Log kill 7 days ([2]; Active Conc. 29.6 ppm) | Log kill t0 ([2]; Active Conc. 100 ppm)

ClC=CC[N+]12CN3CN(CN(C3)C1)C2.[Cl-] [CTAC, 1-(3-chloroallyl)-3,5,7-triaza-1-azoniaadamantane chloride]
5 log: Log kill 7 days ([1]; Active Conc. 158 ppm) | Log kill 48 h ([1]; Active Conc. 800 ppm)
2.5 log: Log kill 24 h ([1]; Active Conc. 800 ppm)
4 log: Log kill 48 h ([1]; Active Conc. 355.6 ppm) | Log kill 7 days ([2]; Active Conc. 177.8 ppm)
1 log: Log kill 24 h ([1]; Active Conc. 355.6 ppm) | Log kill 7 days ([2]; Active Conc. 52.7 ppm) | Log kill 7 days ([2]; Active Conc. 79 ppm)
0 log: Log kill 24 h ([1]; Active Conc. 46.8 ppm) | Log kill 48 h ([1]; Active Conc. 46.8 ppm) | Log kill 7 days ([1]; Active Conc. 46.8 ppm) | Log kill t0 ([1]; Active Conc. 46.8 ppm) | Log kill 24 h ([1]; Active Conc. 158 ppm) | Log kill t0 ([1]; Active Conc. 158 ppm) | Log kill t0 ([1]; Active Conc. 355.6 ppm) | Log kill t0 ([1]; Active Conc. 800 ppm) | Log kill 24 h ([2]; Active Conc. 52.7 ppm) | Log kill 48 h ([2]; Active Conc. 52.7 ppm) | Log kill t0 ([2]; Active Conc. 52.7 ppm) | Log kill 24 h ([2]; Active Conc. 79 ppm) | Log kill 48 h ([2]; Active Conc. 79 ppm) | Log kill t0 ([2]; Active Conc. 79 ppm) | Log kill 24 h ([2]; Active Conc. 177.8 ppm) | Log kill 48 h ([2]; Active Conc. 177.8 ppm) | Log kill t0 ([2]; Active Conc. 177.8 ppm) | Log kill 24 h ([2]; Active Conc. 400 ppm) | Log kill 48 h ([2]; Active Conc. 400 ppm) | Log kill t0 ([2]; Active Conc. 400 ppm)
6 log: Log kill 7 days ([1]; Active Conc. 355.6 ppm) | Log kill 7 days ([1]; Active Conc. 800 ppm) | Log kill 7 days ([2]; Active Conc. 400 ppm)
0.5 log: Log kill 48 h ([1]; Active Conc. 158 ppm)
